# Measured values taken from patent US11324774B2, “Compositions of oral alkaline salts and metabolic acid inducers and uses thereof” (Augusta University Research Institute, Inc., priority 2018, dated 2022).
# Like-named read-outs stand apart in the source and are kept apart here.
# Legend:
# splenic macrophages = conditions: 3 days, 0.1M in drinking water (unpublished data)
# IL-6 = tested on: IL-6
# Description: (§1) IL-6 and TNF-α were determined in plasma samples using the microfluidic simple plex cartridge system following manufacturer specifications. Briefly, Simple Plex uses 25 μL of serum for measurement of the […] cytokines. The work flow of the Simple Plex assays is: (a) a test cartridge is primed with samples with each sample split into channels (i.e., TNF-α and IL-6 to react with their respective antibodies immobilized on glass nanoreactors; (b) after sample incubation, circuits in the cartridge are cleaned with wash buffer, and biotinylated detection antibody solutions are individually pumped into their respective channels to bind to protein analyte captured on the GNRs; (c) after incubation, unbound detection antibodies are washed away and a detection solution (i.e., streptavidin DyLight 650) is flowed into all channels to conjugate with the biotinylated detection antibodies; (d) the detection solution is washed away; detection fluorophores (i.e., DyLight 650) are excited with a 631 nm laser; and the fluorescence signals are read with a charge-coupled device (CCD) camera. The signals are used for quantification based on master calibrator curves provided by the manufacturer.
# TNF-α = tested on: TNF-α
# Description: as §1
# [1] = tested on: spleen cells (M1/M2 macrophages)
# [2] = tested on: vascular endothelial function; conditions: in vivo, po
# [3] = tested on: TNF-α expressing splenic cells; conditions: spleens of rats, given orally in drinking solution
# Description: To identify and evaluate immune cells in splenic tissues, a flow cytometry-based assay was employed. Buffering capacity and pH were determined by titration of the solutions with HCl.
# To identify and evaluate immune cells in splenic tissues, a flow cytometry-based assay was used.
# [4] = 0.1M in drinking water
# Description: Urine collection: For urine collection rats were placed in rat metabolic cages for 24 hours (Nalgene, Rochester, N.Y.). Urine was collected and weighed for volume determination. Up to 10 mL of urine was stored at −80° C. for later analysis. All urinary data are presented as 24 hour urinary excretion.
# Electrolytes: Urinary Na, K and Cl measurements were obtained using an electrolyte analyzer (Easylite; Medica Co, Bedford Mass.). Samples were diluted 1:10, 1 part urine to 9 parts Easylyte Urine Diluent as per the manufactures instructions.
# (§2) Rat protocols: Dahl SS rats: All rats were maintained on low salt chow with ad libitum water (tap water). […] Following four days of low salt (LS) feeding, rats were placed on an 8% HS diet (AIN76A 8%; Dyets) for two weeks. 24 hour urine collections were obtained on day 3 of low salt and day 7 and day 14 of high salt feeding if applicable. Following 14 days of HS feeding, rats were anesthetized with isoflurane (2-5%) and tissue harvested for analysis.
# [5] = Description: Serum Electrolytes: Blood samples were collected via an intravenous catheter (Nexiva™ Becton Dickinson, Franklin Lakes, N.J.) at baseline and at 60 minute intervals post-treatment to examine changes in serum electrolyte balance (Na, K, and Cl^−).
# [6] = tested on: kidney cells (M1/M2 macrophages); conditions: 4 days
# blood = conditions: 0.1M NaHCO3 in drinking water
# Description: Flow cytometry: With the exception of one group of rats (n=5+5), in all HS fed Dah SS rats, blood pressure telemetry devices were implanted prior to beginning the study. […] No surgical procedures were performed on LS fed Dahl SS rats or Sprague Dawley rats prior to tissue harvest. On the day of tissue harvest rats were anesthetized with isoflurane (2-5%) and a midline incision was performed. The abdominal aorta was catheterized for the collection of ˜2mL of arterial blood in a heparinized tube and the left kidney excised and immediately processed for flow cytometry. Antibody markers utilized for flow cytometry as well as references are given in the online methods.
# In all flow studies, cells were then incubated with antibodies for surface markers for 20 minutes on ice in the dark (all antibodies from Pharmingen-BD-Biosciences, San Jose, Calif.). Cells were then washed with PBS, fixed and permeabilized using FOXP3/Transcription Factor Fix/Perm Buffer (eBiosciences, San Diego, Calif.) for 15 minutes in the dark on ice, and washed once again with PBS before incubation with antibodies for intracellular staining of Foxp3, TNFa, IL-10, and IL-17, on ice in the dark for 20 minutes (BD Biosciences). Cells were then washed and run through a four-color flow cytometer (FACS Calibur, Becton-Dickinson), and data were collected using CellQuest software.
# In all flow studies, group identifiers were removed and flow cytometry analysis was performed by an investigator unaware of the hypothesis or the origin of samples. Samples were double-stained with control IgG and cell markers and were used to assess any spillover signal of fluorochromes; proper compensation was set to ensure the median fluorescence intensities of negative and positive cells were identical and were both gated populations. Gating was used to exclude dead cells and debris using forward and side scatterplots. In each analysis, 100,000 total events were collected. As a gating strategy, for each sample, isotype-matched controls were analyzed to set the appropriate gates. For each marker, samples were analyzed in duplicate measurements. To minimize false-positive events, the number of double- positive events detected with the isotype controls was subtracted from the number of double-positive cells stained with corresponding antibodies (not isotype control), respectively. Cells expressing a specific marker were reported as a percentage of the number of gated events.
# as §2
# Dahl SS rats on the LS protocol were treated identically to the HS protocol above except following 4 days of LS rats were anesthetized and tissue harvested for flow cytometric analysis prior to beginning a HS diet.
# [7] = Spleen, 14 Days HS, 0.1M NaHCO3 in drinking water
# [8] = compared to vehicle (0.1M NaCl)
compound,measurement,setting,value
"O=C([O-])O.[Na+] [NaHCO3, sodium bicarbonate]",M2 macrophages,splenic macrophages,no effect
same,splenic macrophages,splenic macrophages,increased
same,IL-6,IL-6; ingestion for 2 weeks,reduces
same,IL-6,"IL-6; single dose, 60 minutes",reduces
same,TNF-α,TNF-α; ingestion for 2 weeks,reduces
same,TNF-α,"TNF-α; single dose, 60 minutes",reduces
same,CD3,[1]; [7],15.3 ± 0.8%
same,CD4,[1]; [7],53 ± 1%
same,CD11b/c,[1]; [7],7.3 ± 0.6%
same,CD44,[1]; [7],35 ± 2%
same,CD69,[1]; [7],7.2 ± 0.9%
same,FOXP3,[1]; [7],6 ± 0.5%
same,IL-10,[1]; [7],7.5 ± 0.7%
same,IL-17,[1]; [7],2.8 ± 0.6%
same,M1,[1]; [7],5.8 ± 0.5%
same,M2,[1]; [7],8.3 ± 0.5%
same,TNFα,[1]; [7],3 ± 0.5%
same,macrophage polarization in splenic tissue,"[1]; high salt fed, p=0.005",polarization from predominately M1 to M2
same,FMD,[2],improves
same,FMD/Shear,[2],improves
same,number of TNF-α (inflammatory) expressing cells,[3],significantly reduced
same,urinary K excretion,[4]; [8],no effect
same,urinary Na excretion,[4]; [8],no effect
same,urinary Cl excretion,"[4]; compared to vehicle, p=0.03",significantly lower
same,serum potassium,[5]; after single 2 g dose,decreased
same,Na,"[5]; serum, Post-treatment, single 2 g dose in 250 ml water",140.8 ± 0.5 mmol/L
same,dose dependence of the effect on polarization,[6]; 0.01M to 0.1M NaHCO3 in drinking water,dose dependent
same,lowest NaHCO3 concentration in drinking water with changes in polarization,[6]; low salt laboratory chow,0.01 M
same,macrophage polarization in the kidney,[6]; out-bred Sprague Dawley rats,promote M2 polarization
same,CD3 (% total kidney),blood; 14 Days HS,57 ± 2%
same,CD4 (% of CD3),blood; 14 Days HS,53 ± 2%
same,CD44 (% of CD3),blood; 14 Days HS,14 ± 2%
same,CD69 (% of CD3),blood; 14 Days HS,0.9 ± 0.3%
same,FOXP3 (% of CD3/CD4),blood; 14 Days HS,4.4 ± 0.6%
same,IL-17 (% of total kidney),blood; 14 Days HS,6 ± 1%
same,CD3,blood; 3 days LS,57 ± 2%
same,CD4,blood; 3 days LS,55 ± 1%
same,CD44,blood; 3 days LS,18 ± 1%
same,CD69,blood; 3 days LS,1.6 ± 0.5%
same,FOXP3,blood; 3 days LS,5.8 ± 0.7%
same,IL-17,blood; 3 days LS,5.6 ± 1.1%
